Assay [1] concerns Hepatic stellate cells (HSC). Kind of assay: HSC apoptosis by acridine orange staining. The format is cell-based, rat. The note with it: for degree of HSC apoptosis compared with SFZ 1 mM: 3a 0.150 mM, 3e 0.127 mM, 3f 0.089 mM (approximately 5-fold lower concentrations). As to the method: To determine the effects of SFZ analogues on HSC survival, activated HSC were treated for 24 hrs with SFZ or analogues, and apoptotic HSC were visualised by staining with Acridine orange (1 μg/ml in 10 mM 4-(2-hydroxyethyl)-1-piperazineethanesulfonic acid (Hepes) buffer, pH7.4). The proportion of apoptotic cells in five random fields were counted in duplicate wells at x20 magnification using a fluorescein isothiocyanate filter. Apoptosis of HSC measured by acridine orange correlates closely with activation of caspase 3.
In addition to its role in malignant cells, NF-kB is required for survival of HSC, which play a key role in the pathogenesis of chronic liver disease. The ability of SFZ and analogues to induce HSC apoptosis was also compared. SFZ (1 mM) increased apoptosis ˜4.5-fold in cultured rat HSC (FIG. 5b). […] Therefore, the SFZ analogues with improved NF-kB-inhibiting activity are also relatively potent inducers of HSC apoptosis.
(§1) (A) CLL cells from three different patients were cultured in the presence of SFZ or compounds 3a and 3f (all at 0.5 mM), or DMSO as a solvent control. After 6 hours, the degree of PARP cleavage was determined as a measure of apoptosis. […] Note that compound 3f was not tested in cells from patient 3. (B) HSC were cultured in the presence of SFZ (1 mM), compounds 3a (0.150 mM), 3e (0.127 mM), 3f (0.089 mM), or DMSO as a solvent control. Analogues were used at the concentration that gave 50% inhibition of NF-kB transcriptional activity in U937 cells. After 20 hours, the proportion of apoptotic cells were visualised by acridine orange staining. Apoptotic cells were counted in five fields in duplicate for each concentration, in two independent experiments and results expressed as mean ±SEM,

Assay [2] concerns AP-1 transcription factor binding sites. Kind of assay: AP-1 reporter construct luciferase activity in transfected activated HSC. It is filed as cell-based. The conditions noted are these: SFZ 1 mM, 3a 0.150 mM, 3e 0.127 mM, 3f 0.089 mM, 24 hours, rat HSC. As to the method: (§2) For HSC transfections, activated HSC were transfected by the non-liposomal Effectene protocol (Qiagen, UK) using 1 μg reporter plasmid DNA and 10 ng of control Renilla plasmid pRLTK (Promega, Southampton, UK) according to the manufacturer's instructions. After 24 hours, HSC were treated with test compounds for a further 24 hours. Luciferase assays were performed using a dual luciferase kit (Promega) according to the manufacturer's instructions. Firefly luciferase activities were normalised for differences in transfection efficiency by measurement of the activity of the co-transfected pRLTK. The pIκBα wt-Luc plasmid contains nucleotides −332 to +35 of the human IkB-α promoter cloned upstream of luciferase gene (Oakley F, et al, J Biol Chem 2003; 278: 24359-70). The pTIMP1-Luc plasmid contains the 162 bp human TIMP1 minimal promoter cloned upstream of luciferase gene (Bertrand-Philippe M, et al. J Biol Chem 2004; 279: 24530-9). The pAP1-Luc plasmid (Stratagene, UK) contains 7 copies of a consensus AP-1 binding site upstream of the minimal promoter and the luciferase gene.
(§3) To extend these findings, further analyses were performed using the […] promoter which contains multiple NF-kB binding sites and is a well studied NF-kB target. […] Consistent with the presence of activated NF-kB in HSC, (Wright M C et al, Gastroenterology 2001; 121: 685-98.) the IkB-α promoter was activated in HSC (FIG. 2a). SFZ (1 mM) inhibited promoter activity by >60%. […] Therefore, the improved inhibitory activity of analogues 3a, 3e and 3f is specific for NF-kB mediated transcription and is not restricted to U937 cells or artificial promoter constructs.
(§4) Rat HSC were transfected with (A) IkB-α-Luc, (B) TIMP1-Luc or (C) pAP-1-Luc reporter constructs. After 24 hours, cells were treated with sulfasalazine (1 mM), 3a (0.150 mM), 3e (0.127 mM), 3f (0.089 mM), or treated with DMSO as a control. Luciferase activity was determined after another 24 hours. Data presented are mean luciferase activity (±SEM) relative to control cells (value set to 100), derived from two separate experiments, each performed in duplicate and using an independent preparation of HSC.

The subject of a further assay is TIMP1 promoter. Kind of assay: TIMP1 promoter luciferase activity in transfected activated HSC. It is filed as cell-based. The note with it: SFZ 1 mM, 3a 0.150 mM, 3e 0.127 mM, 3f 0.089 mM, 24 hours, rat HSC. As to the method: as §2, §3, §4
In another assay the test system is IkB-α promoter. Kind of assay: IkB-α promoter luciferase activity in transfected activated HSC. The format is cell-based. The note with it: 24 hours, rat HSC; for inhibition of IkB-α promoter activity compared with SFZ 1 mM: 3a 0.150 mM, 3e 0.127 mM, 3f 0.089 mM (at IC50). Here is the method: as §2, §3, §4
The next assay has as its system CLL cells. Kind of assay: CLL apoptosis by PARP cleavage. It is filed as cell-based, human. The conditions noted are these: 6 hours; for PARP cleavage in CLL cells compared with SFZ: 0.5 mM, three patient samples. As to the method:
CLL apoptosis was quantified by analysing PARP which is cleaved by effector caspases during apoptosis. CLL cells isolated from three individual patients were recovered from storage in liquid nitrogen and cultured at a density of 1.25×10^6 cells in 1 ml of growth medium (RPMI 1640, 10% (v/v) FCS and antibiotics). After 1 hour, […] were treated with compounds. Cells were harvested 6 hours after addition of compound, resuspended in 1×SDS-PAGE sample buffer and sonicated prior to immunoblot analysis for PARP expression as described below. PARP cleavage was quantified by determining the amount of cleaved PARP as a percentage of total PARP expression by digital image analysis.
The ability of SFZ and the analogues to induce CLL apoptosis was analysed. CLL cells from 3 individual patients were treated with SFZ for 6 hours and apoptosis was quantified by analysing PARP cleavage. […] The amount of apoptosis induced by SFZ and compounds 3a and 3f (at 0.5 mM) was compared.
as §1

From patent publication US20080090788A1, “Chemical Compounds” (priority 2005, published 2008) come the findings set out here.

With `COc1ccc(CNS(=O)(=O)c2ccc(/N=N/c3ccc(O)c(C(=O)O)c3)cc2)cc1` [Compound 3a, 2-hydroxy-5-[4-(4-methoxy-benzylsulfamoyl)-phenylazo]-benzoic acid], the “degree of HSC apoptosis compared with SFZ 1 mM” value (“degree … compared with SFZ 1 mM” for short) in assay [1] is recorded as “approximately the same degree of apoptosis”. In addition, the “effect on activity of AP-1 reporter construct” value (from here on “effect on activity”) in assay [2] is “neither SFZ or the analogues interfered”. In the assay on TIMP1 promoter, the “effect on TIMP1 promoter activity” value is “neither SFZ or the analogues interfered with TIMP1 promoter activity”. The “inhibition of IkB-α promoter activity compared with SFZ 1 mM” value (“inhibition … compared with SFZ 1 mM” for short) with IkB-α promoter is reported as “approximately equally effective”. For the same compound, the “PARP cleavage in CLL cells compared with SFZ” value with CLL cells is “induced more PARP cleavage than SFZ”.
Regarding `Cc1cc(/N=N/c2ccc(S(=O)(=O)NCc3ccc(C(F)(F)F)cc3)cc2)cc(C(=O)O)c1O` [Compound 3e, 2-hydroxy-3-methyl-5-[4-(4-trifluoromethyl-benzylsulfamoyl)-phenylazo]-benzoic acid], the “degree … compared with SFZ 1 mM” value in assay [1] was “approximately the same degree of apoptosis”. In addition, in assay [2], the “effect on activity” value is recorded as “neither SFZ or the analogues interfered”. Moreover, the “effect on TIMP1 promoter activity” value in the assay on TIMP1 promoter is reported as “neither SFZ or the analogues interfered with TIMP1 promoter activity”. Moreover, the “inhibition … compared with SFZ 1 mM” value in the assay with IkB-α promoter is “approximately equally effective”.
Consider `O=C(O)c1cc(/N=N/c2ccc(S(=O)(=O)NCc3ccc(C(F)(F)F)cc3)cc2)ccc1O` [Compound 3f, 2-hydroxy-5-[4-(4-trifluoromethyl-benzylsulfamoyl)-phenylazo]-benzoic acid], for which the “degree … compared with SFZ 1 mM” value in assay [1] is on record as “approximately the same degree of apoptosis”. The “effect on activity” value in assay [2] is listed as “neither SFZ or the analogues interfered”. In addition, the “effect on TIMP1 promoter activity” value with TIMP1 promoter was “neither SFZ or the analogues interfered with TIMP1 promoter activity”. In the assay on IkB-α promoter, the “inhibition … compared with SFZ 1 mM” value is reported as “approximately equally effective”. Further, the “PARP cleavage in CLL cells compared with SFZ” value in the assay with CLL cells is given as “induced more PARP cleavage than SFZ”.
For the compound `O=C(O)c1cc(/N=N/c2ccc(S(=O)(=O)Nc3ccccn3)cc2)ccc1O` [SFZ, Sulfasalazine, reference compound], the “increase in apoptosis of cultured HSC” value in assay [1] (SFZ 1 mM, cultured rat HSC) is recorded as about 4.5 fold. Also, the “effect on activity” value in assay [2] is “neither SFZ or the analogues interfered”. The “effect on TIMP1 promoter activity” value in the assay with TIMP1 promoter was “neither SFZ or the analogues interfered with TIMP1 promoter activity”. Also, the inhibition at 1000 µM in the assay with IkB-α promoter (SFZ 1 mM) is over 60%. For the same compound, the “induction of apoptosis (PARP cleavage) in CLL cells” value in the assay on CLL cells (cells from 3 patients, dose response) is given as “induced dose dependent apoptosis”.

A word on the inhibition: it is the percentage by which the read-out fell short of the control. High values mean a strong effect, low ones a weak effect.
